Experimental data published in patent US11180462B2, “Microbiocidal oxadiazole derivatives” (SYNGENTA PARTICIPATIONS AG, priority 2015, dated 2021).

Tests used:
[1] = tested on: Glomerella lagenarium (Colletotrichum lagenarium); assay: Fungicidal activity against Glomerella lagenarium (Colletotrichum lagenarium) liquid culture / cucumber / preventative (anthracnose); format: cell-based; settings: Colletotrichum orbiculare; 20 ppm in the applied formulation; liquid culture (PDB), growth inhibition measured photometrically after 3 to 4 days; compared to untreated control; read-out: disease control
Outline: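 Photometric read-out of fungal growth after 2–7 days, expressed as percent antifungal activity versus untreated check. Cryo-stored conidia in PDB; compound at 20 ppm; dark, 24 °C, 96% RH.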

[2] = tested on: Puccinia recondita f. Sp. Tritici; assay: Fungicidal activity against Puccinia recondita f. sp. tritici / wheat / leaf disc curative (brown rust); format: in vivo; settings: foliar, 24 h, 200 ppm in the applied formulation, wheat leaf segments, curative (applied 1 day after inoculation), compared to untreated control leaf disks, read-out: disease control
Outline: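 % disease control vs untreated, scored 6–8 d post-application. Wheat cv. Kanzler segments, spore-inoculated, dark 19° C/75% RH; formulated cpd applied 1 d post-inoc; then 19° C, 75% RH, 12 h L/12 h D.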

Phakopsora Pachyrhizi = assay: Fungicidal activity against Phakopsora pachyrhizi / soybean / leaf disc preventative (Asian soybean rust); format: in vivo; settings: foliar, 200 ppm in the applied formulation, soybean leaf disks, compared to untreated control leaf disks, read-out: disease control
Outline: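 Preventative soybean leaf-disc test: discs on water agar sprayed with diluted formulated compound, inoculated one day later with spores on the lower surface. Held 24–36 h dark at 20°C, 75% rh, then 12 h light/day; percent disease control versus untreated discs scored 12–14 days after application.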

[3] = tested on: Puccinia recondita f. Sp. Tritici; assay: Fungicidal activity against Puccinia recondita f. sp. tritici / wheat / leaf disc preventative (brown rust); format: in vivo; settings: foliar, 200 ppm in the applied formulation, wheat leaf segments, preventative, compared to untreated control leaf disks, read-out: disease control
Outline: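 Preventative leaf-segment test, wheat cv. Kanzler on water agar. Spray compound at 200 ppm, inoculate with spores 1 day later; 19° C., 75% rh, 12/12 h light. Read-out: % disease control vs untreated, 7 to 9 days after application.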

O=C(C1CC1(Cl)Cl)N(Cc1ccc(-c2noc(C(F)(F)F)n2)cc1)C1CC1 (stereo not shown) [Compound 1.125, 2,2-dichloro-N-cyclopropyl-N-[[4-[5-(trifluoromethyl)-1,2,4-oxadiazol-3-yl]phenyl]methyl]-cyclopropane-carboxamide]
≥ 80%: inhibition of growth at 20 ppm [1] | pest or weed control at 200 ppm [2] | pest or weed control at 200 ppm (Phakopsora Pachyrhizi) | pest or weed control at 200 ppm [3]

CCC(C)C(=O)N(Cc1ccc(-c2noc(C(F)(F)F)n2)cc1)C1CC1 (stereo not shown) [Compound 1.126, N-cyclopropyl-2-methyl-N-[[4-[5-(trifluoromethyl)-1,2,4-oxadiazol-3-yl]phenyl]methyl]-butanamide]
≥ 80%: inhibition of growth at 20 ppm [1] | pest or weed control at 200 ppm [2] | pest or weed control at 200 ppm (Phakopsora Pachyrhizi) | pest or weed control at 200 ppm [3]

CC1(C(=O)N(Cc2ccc(-c3noc(C(F)(F)F)n3)cc2)C2CC2)COC1 [Compound 1.128, N-cyclopropyl-3-methyl-N-[[4-[5-(trifluoromethyl)-1,2,4-oxadiazol-3-yl]phenyl]methyl]-oxetane-3-carboxamide]
≥ 80%: inhibition of growth at 20 ppm [1] | pest or weed control at 200 ppm [2] | pest or weed control at 200 ppm (Phakopsora Pachyrhizi) | pest or weed control at 200 ppm [3]

N#Cc1ccc(CC(=O)N(Cc2ccc(-c3noc(C(F)(F)F)n3)cc2)C2CC2)cc1 [Compound 1.130, 2-(4-cyanophenyl)-N-cyclopropyl-N-[[4-[5-(trifluoromethyl)-1,2,4-oxadiazol-3-yl]phenyl]methyl]-acetamide]
≥ 80%: inhibition of growth at 20 ppm [1] | pest or weed control at 200 ppm [2] | pest or weed control at 200 ppm (Phakopsora Pachyrhizi) | pest or weed control at 200 ppm [3]

CC(C)C(NC(=O)C1CC1)C(=O)N(Cc1ccc(-c2noc(C(F)(F)F)n2)cc1)C1CC1 (stereo not shown) [Compound 1.132, N-[1-[cyclopropyl-[[4-[5-(trifluoromethyl)-1,2,4-oxadiazol-3-yl]phenyl]methyl]-carbamoyl]-2-methyl-propyl]-cyclopropane-carboxamide]
≥ 80%: inhibition of growth at 20 ppm [1] | pest or weed control at 200 ppm [2] | pest or weed control at 200 ppm (Phakopsora Pachyrhizi) | pest or weed control at 200 ppm [3]

CCC(COC)C(=O)N(Cc1ccc(-c2noc(C(F)(F)F)n2)cc1)C1CC1 (stereo not shown) [Compound 1.134, N-cyclopropyl-2-(methoxymethyl)-N-[[4-[5-(trifluoromethyl)-1,2,4-oxadiazol-3-yl]phenyl]methyl]-butanamide]
≥ 80%: inhibition of growth at 20 ppm [1] | pest or weed control at 200 ppm [2] | pest or weed control at 200 ppm (Phakopsora Pachyrhizi) | pest or weed control at 200 ppm [3]

COCCCC(=O)N(Cc1ccc(-c2noc(C(F)(F)F)n2)cc1)C1CC1 [Compound 1.136, N-cyclopropyl-4-methoxy-N-[[4-[5-(trifluoromethyl)-1,2,4-oxadiazol-3-yl]phenyl]methyl]-butanamide]
≥ 80%: inhibition of growth at 20 ppm [1] | pest or weed control at 200 ppm [2] | pest or weed control at 200 ppm (Phakopsora Pachyrhizi) | pest or weed control at 200 ppm [3]

O=C(CC1CC1(F)F)N(Cc1ccc(-c2noc(C(F)(F)F)n2)cc1)C1CC1 (stereo not shown) [Compound 1.138, N-cyclopropyl-2-(2,2-difluorocyclopropyl)-N-[[4-[5-(trifluoromethyl)-1,2,4-oxadiazol-3-yl]phenyl]methyl]-acetamide]
≥ 80%: inhibition of growth at 20 ppm [1] | pest or weed control at 200 ppm [2] | pest or weed control at 200 ppm (Phakopsora Pachyrhizi) | pest or weed control at 200 ppm [3]

O=C(C1CCCO1)N(Cc1ccc(-c2noc(C(F)(F)F)n2)cc1)C1CC1 (stereo not shown) [Compound 1.145, N-cyclopropyl-N-[[4-[5-(trifluoromethyl)-1,2,4-oxadiazol-3-yl]phenyl]methyl]-tetrahydrofuran-2-carboxamide]
≥ 80%: inhibition of growth at 20 ppm [1] | pest or weed control at 200 ppm [2] | pest or weed control at 200 ppm (Phakopsora Pachyrhizi) | pest or weed control at 200 ppm [3]

N#CCC(=O)N(Cc1ccc(-c2noc(C(F)(F)F)n2)cc1)C1CC1 [Compound 1.146, 2-cyano-N-cyclopropyl-N-[[4-[5-(trifluoromethyl)-1,2,4-oxadiazol-3-yl]phenyl]methyl]-acetamide]
≥ 80%: inhibition of growth at 20 ppm [1] | pest or weed control at 200 ppm [2] | pest or weed control at 200 ppm (Phakopsora Pachyrhizi) | pest or weed control at 200 ppm [3]

COC(C)C(=O)N(Cc1ccc(-c2noc(C(F)(F)F)n2)cc1)C1CC1 (stereo not shown) [Compound 1.147, N-cyclopropyl-2-methoxy-N-[[4-[5-(trifluoromethyl)-1,2,4-oxadiazol-3-yl]phenyl]methyl]-propanamide]
≥ 80%: inhibition of growth at 20 ppm [1] | pest or weed control at 200 ppm [2] | pest or weed control at 200 ppm (Phakopsora Pachyrhizi) | pest or weed control at 200 ppm [3]

O=C(C1CC1)N(Cc1ccc(-c2noc(C(F)(F)F)n2)cc1)C1CC1 [Compound 1.149, N-cyclopropyl-N-[[4-[5-(trifluoromethyl)-1,2,4-oxadiazol-3-yl]phenyl]methyl]-cyclopropane-carboxamide]
≥ 80%: inhibition of growth at 20 ppm [1] | pest or weed control at 200 ppm [2] | pest or weed control at 200 ppm (Phakopsora Pachyrhizi) | pest or weed control at 200 ppm [3]

O=C(c1ccccc1)N(Cc1ccc(-c2noc(C(F)(F)F)n2)cc1)C1CC1 [Compound 1.150, N-cyclopropyl-N-[[4-[5-(trifluoromethyl)-1,2,4-oxadiazol-3-yl]phenyl]methyl]-benzamide]
≥ 80%: inhibition of growth at 20 ppm [1] | pest or weed control at 200 ppm [2] | pest or weed control at 200 ppm (Phakopsora Pachyrhizi) | pest or weed control at 200 ppm [3]

C#CCN(Cc1ccc(-c2noc(C(F)(F)F)n2)cc1)C(=O)C1(C(F)(F)F)CC1 [Compound 1.151, N-prop-2-ynyl-1-(trifluoromethyl)-N-[[4-[5-(trifIuoromethyl)-1,2,4-oxadiazol-3-yl]phenyl]methyl]-cyclopropane-carboxamide]
≥ 80%: inhibition of growth at 20 ppm [1] | pest or weed control at 200 ppm [2] | pest or weed control at 200 ppm (Phakopsora Pachyrhizi) | pest or weed control at 200 ppm [3]

C#CCCC(=O)N(CC#C)Cc1ccc(-c2noc(C(F)(F)F)n2)cc1 [Compound 1.154, N-prop-2-ynyl-N-[[4-[5-(trifluoromethyl)-1,2.4-oxadiazol-3-yl]phenyl]methyl]-pent-4-ynamide]
≥ 80%: inhibition of growth at 20 ppm [1] | pest or weed control at 200 ppm [2] | pest or weed control at 200 ppm (Phakopsora Pachyrhizi) | pest or weed control at 200 ppm [3]

C#CCN(Cc1ccc(-c2noc(C(F)(F)F)n2)cc1)C(=O)C(C)C [Compound 1.155, 2-methyl-N-prop-2-ynyl-N-[[4-[5-(trifluoromethyl)-1,2,4-oxadiazol-3-yl]phenyl]methyl]-propanamide]
≥ 80%: inhibition of growth at 20 ppm [1] | pest or weed control at 200 ppm [2] | pest or weed control at 200 ppm (Phakopsora Pachyrhizi) | pest or weed control at 200 ppm [3]

C#CCN(Cc1ccc(-c2noc(C(F)(F)F)n2)cc1)C(=O)C1CC1(F)F (stereo not shown) [Compound 1.157, 2,2-difluoro-N-prop-2-ynyl-N-[[4-[5-(trifluoromethyl)-1,2,4-oxadiazol-3-yl]phenyl]methyl]-cyclopropane-carboxamide]
≥ 80%: inhibition of growth at 20 ppm [1] | pest or weed control at 200 ppm [2] | pest or weed control at 200 ppm (Phakopsora Pachyrhizi) | pest or weed control at 200 ppm [3]

C#CCN(Cc1ccc(-c2noc(C(F)(F)F)n2)cc1)C(=O)CCC=C [Compound 1.159, N-prop-2-ynyl-N-[[4-[5-(trifluoromethyl)-1,2,4-oxadiazol-3-yl]phenyl]methyl]-pent-4-enamide]
≥ 80%: inhibition of growth at 20 ppm [1] | pest or weed control at 200 ppm [2] | pest or weed control at 200 ppm (Phakopsora Pachyrhizi) | pest or weed control at 200 ppm [3]

C#CCN(Cc1ccc(-c2noc(C(F)(F)F)n2)cc1)C(=O)C(C)CC(C)=O (stereo not shown) [Compound 1.164, 2-methyl-4-oxo-N-prop-2-ynyl-N-[[4-[5-(trifluoromethyl)-1,2,4-oxadiazol-3-yl]phenyl]methyl]-pentanamide]
≥ 80%: inhibition of growth at 20 ppm [1] | pest or weed control at 200 ppm [2] | pest or weed control at 200 ppm (Phakopsora Pachyrhizi) | pest or weed control at 200 ppm [3]

C#CCN(Cc1ccc(-c2noc(C(F)(F)F)n2)cc1)C(=O)CCC [Compound 1.165, N-prop-2-ynyl-N-[[4-[5-(trifluoromethyl)-1,2,4-oxadiazol-3-yl]phenyl]methyl]-butanamide]
≥ 80%: inhibition of growth at 20 ppm [1] | pest or weed control at 200 ppm [2] | pest or weed control at 200 ppm (Phakopsora Pachyrhizi) | pest or weed control at 200 ppm [3]

C#CCN(Cc1ccc(-c2noc(C(F)(F)F)n2)cc1)C(=O)CC1CC1 [Compound 1.167, 2-cyclopropyl-N-prop-2-ynyl-N-[[4-[5-(trifluoromethyl)-1,2,4-oxadiazol-3-yl]phenyl]methyl]-acetamide]
≥ 80%: inhibition of growth at 20 ppm [1] | pest or weed control at 200 ppm [2] | pest or weed control at 200 ppm (Phakopsora Pachyrhizi) | pest or weed control at 200 ppm [3]

C#CCN(Cc1ccc(-c2noc(C(F)(F)F)n2)cc1)C(=O)C1CCCC1 [Compound 1.168, N-prop-2-ynyl-N-[[4-[5-(trifluoromethyl)-1,2,4-oxadiazol-3-yl]phenyl]methyl]-cyclopentane-carboxamide]
≥ 80%: inhibition of growth at 20 ppm [1] | pest or weed control at 200 ppm [2] | pest or weed control at 200 ppm (Phakopsora Pachyrhizi) | pest or weed control at 200 ppm [3]
